From patent US5693628A, “11-benzaldoxime-estra-diene derivatives, methods for their production and pharmaceuticals containing these compounds” (priority 1994, dated 1997)

Columns and labels:
oestrogen receptor = molecular target: T1, oestrogen receptor (Oryctolagus cuniculus, UniProt G1SML6); assay: relative molar bonding affinity to oestrogen receptor (competitive bonding); format: binding; details: estradiol = 100%; uterine cytosol of immature rabbit; 3H-ethinyl estradiol, 3 nM; 18 h, 0-4° C.
T1 construct: uterine cytosol of the immature rabbit; from tissue; host or cells: uterus (cytosol) of immature rabbit
T1 sequence (G1SML6 1-598): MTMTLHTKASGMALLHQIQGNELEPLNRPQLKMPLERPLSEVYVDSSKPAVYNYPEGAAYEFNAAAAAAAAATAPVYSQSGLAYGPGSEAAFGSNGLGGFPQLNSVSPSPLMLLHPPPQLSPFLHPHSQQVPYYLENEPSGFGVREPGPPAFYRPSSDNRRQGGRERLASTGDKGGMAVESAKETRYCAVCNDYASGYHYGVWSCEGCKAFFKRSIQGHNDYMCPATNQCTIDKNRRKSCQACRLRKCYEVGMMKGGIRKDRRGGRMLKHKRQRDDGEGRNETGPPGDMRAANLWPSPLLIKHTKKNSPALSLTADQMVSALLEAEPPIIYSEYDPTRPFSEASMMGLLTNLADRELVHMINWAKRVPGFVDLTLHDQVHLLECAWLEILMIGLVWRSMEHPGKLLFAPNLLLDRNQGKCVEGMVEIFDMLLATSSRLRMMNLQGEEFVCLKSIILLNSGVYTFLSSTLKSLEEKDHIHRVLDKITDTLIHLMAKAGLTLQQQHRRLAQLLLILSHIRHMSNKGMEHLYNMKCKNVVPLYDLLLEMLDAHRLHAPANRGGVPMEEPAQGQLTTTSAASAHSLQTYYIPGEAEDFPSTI
Method: (§1) Measurement of bonding affinity for receptors
(§2) Receptor bonding affinity was determined by competitive bonding of a specifically binding ^3 H labelled hormone (tracer) and the compound to be tested to receptors in the cytosol from animal target organs. It was tried to obtain receptor saturation and a balanced reaction. The following incubation conditions were selected:
Oestrogen receptor: uterine cytosol of the immature rabbit, kept at -30° C. in TED buffer with 250 mM of saccharose. Tracer: ^3 H-ethinyl estradiol, 3 nM; reference substance: 17β-estradiol.
(§3) After an incubation period of 18 hours at 0°-4° C., bonded and free steroid was separated by mixing in active carbon/dextrane (1%/0.1%), centrifuging off and measuring the bonded ^3 H activity in the supernatant.
The IC50 for the compound to be tested and for the reference substance were determined from measurements in series of concentrations. The quotient of both values (×100%) is the relative molar bonding affinity.

glucocorticoid receptor = molecular target: T2, glucocorticoid receptor (Rattus norvegicus, UniProt P06536); assay: relative molar bonding affinity to glucocorticoid receptor (competitive bonding); format: binding; details: dexamethasone = 100%; thymus cytosol of adrenalectomized rat; 3H-dexamethasone, 20 nM; 18 h, 0-4° C.
T2 construct: thymus cytosol of the adrenalectomized rat; from tissue; host or cells: thymus (cytosol) of adrenalectomized rat
T2 sequence (P06536 1-795): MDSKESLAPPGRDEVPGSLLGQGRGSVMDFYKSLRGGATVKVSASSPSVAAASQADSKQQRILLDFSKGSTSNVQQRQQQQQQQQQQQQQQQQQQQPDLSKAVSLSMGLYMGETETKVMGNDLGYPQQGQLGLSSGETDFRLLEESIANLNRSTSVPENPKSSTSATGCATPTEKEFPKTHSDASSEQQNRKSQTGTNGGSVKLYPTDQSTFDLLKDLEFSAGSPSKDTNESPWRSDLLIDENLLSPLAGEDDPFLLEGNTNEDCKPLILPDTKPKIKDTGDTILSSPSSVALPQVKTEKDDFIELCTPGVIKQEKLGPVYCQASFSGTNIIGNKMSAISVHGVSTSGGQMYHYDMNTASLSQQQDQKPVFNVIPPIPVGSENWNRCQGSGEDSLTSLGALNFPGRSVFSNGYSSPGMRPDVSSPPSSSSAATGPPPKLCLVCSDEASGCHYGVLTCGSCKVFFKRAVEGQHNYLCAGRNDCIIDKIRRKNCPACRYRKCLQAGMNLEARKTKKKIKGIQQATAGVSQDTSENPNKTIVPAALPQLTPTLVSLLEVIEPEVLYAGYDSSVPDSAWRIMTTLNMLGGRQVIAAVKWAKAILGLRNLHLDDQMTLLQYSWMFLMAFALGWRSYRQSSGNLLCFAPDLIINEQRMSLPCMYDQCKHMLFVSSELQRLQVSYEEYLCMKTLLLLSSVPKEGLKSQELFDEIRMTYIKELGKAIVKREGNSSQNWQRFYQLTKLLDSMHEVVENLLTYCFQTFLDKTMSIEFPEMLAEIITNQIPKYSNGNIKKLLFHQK
Method: as §1, §2
Glucocorticoid receptor: thymus cytosol of the adrenalectomized rat, thymi kept at -30° C., buffer: TED. Tracer: ^3 H-dexamethasone, 20 nM; reference substance: dexamethasone.
as §3
The IC50 for the compound to be tested and for the reference substance were determined from measurements in series of concentrations.

[1] = system: H4-IIE rat hepatoma cell line (TAT induction); assay: Antiglucocorticoid effect: inhibition of dexamethasone-induced TAT in rat hepatoma cells; format: cell-based; details: hepatomatous cells of rats; 10^-8 M dexamethasone
From the text: FIG. 3. is a graph showing the antiglucocorticoid effect of J 867 (Example 1) in comparison to RU 486. The graph depicts the inhibition of TAT induction in a rat hepatoma cell line (the H4-IIE cell line) which were induced by 10^-8 M dexamethasone. The graph indicates the log molar antagonist concentration in the x-axis versus the maximum TAT induction as a percentage in the y-axis. The results for dexamethasone is shown as dashed lines (- - -), the IC50 is shown in solid line (----), RU 486 is shown as open boxes (.quadrature.), and J 867 is shown with closed boxes (.box-solid.).
FIG. 3 compares the antiglucocorticoid effect of J 867 and RU 486 on hepatomatous cells of rats using the TAT model.
In hepatomatous cells of rats, dexamethasone stimulates the tyrosine amino transferase enzyme (TAT). This effect is inhibited by antiglucocorticoid activity.
Antiglucocorticoid effect of J867 in hepatomatous cells of rats using the TAT model
The cell cultures were treated in DMEM under essentially the same conditions as in Example 14. The cells were spread over 24 well plates for the experiments. Substance was added to the confluent hepatomatous cells in 0.2% (v/v) ethanol for 16 hours. After the cells were carefully harvested using a scraper and a cell extract obtained using ultrasonic waves, TAT was determined according to Diamondstone.

[2] = system: uterine weight in cyclic guinea pigs; assay: Influence on uterine weight in cyclic guinea pigs; format: in vivo, guinea pig
From the text: FIG. 1. is a chart showing a comparison of the influence on uterine weight in cyclic guineau pigs when treated with the antigestagen agents RU 486, a control (the vehicle), and a compound of the present invention, J 867 (as prepared in accordance with Example 1).
FIG. 1 compares the influence of antigestagen treatment of cyclic guinea pigs on uterine weights for J 867 and RU 486.
Treatment of female guinea pigs with antigestagen
Treatment of adult female guinea pigs from day 10 to day 18 of the cycle (autopsy). Administration of the specified doses using subcutaneous osmotic pumps (Type 2 ML1 ALZET). Vehicle: […] propylene glycol/24 hrs.

relative molar bonding affinity (RBA) to oestrogen rec. (oestrogen receptor): < 0.1% | relative molar bonding affinity (RBA) to glucocorticoid receptor (glucocorticoid receptor): 78%
SMILES: COC[C@]1(OC)CC[C@H]2[C@@H]3CCC4=CC(=O)CCC4=C3[C@@H](c3ccc(C=NO)cc3)C[C@@]21C [Example 1, 11β-[4-(hydroximinomethyl)phenyl]-17β-methoxy-17α-methoxymethyl-estra-4,9-diene-3-on]
antiglucocorticoid effect (TAT) compared with RU 486 [1]: clearly weaker antiglucocorticoid effect than RU 486 | inhibition of uterine weights of cyclic guinea pigs, all doses ([2]; 1, 3, and 6 mg/24 hrs, s.c. osmotic pump, day 10 to 18 of cycle): inhibited uterine weights to a statistically significant extent | uterine weights in the anovulatorial cycle in guinea pigs ([2]; doses at which RU 486 increases uterine weights, compared with control animals): significantly reduced uterine weights
